Data from patent publication US12648945B2, “Compositions and methods for treating systemic lupus erythematosus” (ASCENTAGE PHARMA (SUZHOU) CO., LTD., priority 2020, dated 2026).

What was measured:
Mcl-1 = Mcl-1 (Homo sapiens, UniProt Q07820); assay: FP saturation binding of fluorescent probe to Mcl-1; settings: 2 nM probe
Description: Bcl-XL, and Mcl-1, respectively.

MRL/lpr mice [1] = assay: Kidney histopathological scores of lupus nephritis in MRL/lpr mouse model of SLE; type: in vivo; settings: week 18
Description: (§1) Female MRL/MpJ-Fas lpr/J mice (18-20 g, 7-8 weeks old) were obtained from The Jackson Laboratory. These mice are homozygous for the lymphoproliferation spontaneous mutation (Fas^lpr), and show systemic autoimmunity, massive lymphadenopathy associated with proliferation of aberrant T cells, arthritis, and immune complex glomerulonephrosis. Thus, these mice are useful as a model in the study of systemic lupus erythematosus (SLE).
(§2) Animals were housed and handled in a temperature-controlled environment with a 12-h light/12-h dark cycle. […] The protocols and procedures involving the care and use of animals were approved by the Institutional Animal Care and Use Committee (IACUC) of WuXiAppTec (Shanghai) Co., Ltd. (Shanghai, China).
At the end of the study, the spleen and lymph nodes were collected and weighed. […] The histopathological score was evaluated microscopically in a blinded manner, vide infra.
The histopathological score was evaluated microscopically in a blinded manner. The […] glomerulonephritis score (GN score) was evaluated using scoring from 0 to 4 (0—normal; 1—mild, focal or early proliferation; 2—moderate or definite proliferation and increased matrix; 3—diffuse and focal or diffuse proliferation; 4—severe diffuse proliferation with crescent/sclerosis). […]

MRL/lpr mice [2] = assay: Lymph node (lymphadenopathy) score in MRL/lpr mouse model of SLE; type: in vivo; settings: week 18, p<0.0001 vs vehicle
Description: as §1, §2
Lymph nodes were scored weekly throughout the study, and were expressed using a scoring system from 0 to 6 based on the diameter of lymph nodes (0—normal; 1—<1 cm in one site; 2—<1 cm in two sites; 3—<1 cm in three sites; 4—>1 cm in one site and <1 cm in two sites); 5—>1 cm in two sites and <1 cm in one site; 6—>1 cm in three sites).

MRL/lpr mice [3] = assay: Flow cytometry lymphocyte counts in PBMC, spleen and kidney of MRL/lpr mice; type: in vivo, mouse; settings: 100 mg/kg po qd
Description: as §1, §2
The spleens and kidneys were harvested from the mice at the conclusion of the study (week 18) and digested into single-cell suspensions. Peripheral blood mononuclear cell (PBMC) were obtained after lysing red blood cells in the whole blood. Cells were stained with the following florescence-labelled antibodies: PerCP-Cyanine5.5-conjugated anti-mouse CD8a (BD Biosciences), AF700-conjugated anti-mouse CD3 (BD Biosciences), PE-eFluor610-conjugated anti-mouse B220 (BD Biosciences), e506-conjugated anti-mouse CD45 (BD Biosciences), BV605-conjugated anti-mouse CD138 (BioLegend), and BV711-conjugated anti-mouse CD4 (BioLegend).
All cells were primarily gated on live lymphocytes based on forward scatter (FCS) and side scatter (SSC). Samples were analyzed on a flow cytometer (BD FACSCalibur, USA) to count the number of each subtype of lymphocytes.
Of note, the reduction of double negative T cells were most significant compared to other lymphocytes. […] Without being bound by theory, the reduced infiltration by pro-inflammatory CD4+ cells and double-negative T cells may be responsible in part for the observed efficacy in treating lupus nephritis.

MRL/lpr mice [4] = assay: Serum anti-dsDNA autoantibody ELISA in MRL/lpr mouse model of SLE; type: in vivo; settings: end of study
Description: as §1, §2
Anti-dsDNA autoantibody levels were measured by ELISA. Briefly, a 96-well flat plate was coated with 10 μg/mL calf thymus ds-DNA (Sigma-Aldrich, MA, USA) at 4° C. overnight. After washing with PBS containing 0.05% Tween 20 (PBS-T) and blocking with 1% bovine serum albumin, serum samples (4000× dilution) were added and incubated for 1 h at room temperature. […] Lastly, ultra TMB-ELISA substrate solution (Pierce Biotechnology, IL, USA) was added and incubated for another 30 min, and the OD values at […] were recorded after the reaction was stopped.

MRL/lpr mice [5] = assay: Skin lesion score in MRL/lpr mouse model of SLE; type: in vivo; settings: week 18, p<0.0001 vs vehicle
Description: as §1, §2
Skin lesions were scored every week starting from week 12 and were expressed using a scoring system from 0 to 4 (0—normal; 1—small lesion with diameter between 2 to 4 mm; 2—lesion area
<0.5 cm^2; 3—lesion area between 0.5 cm^2 to 1 cm^2; 4—lesion area >1 cm^2).

MRL/lpr mice [6] = assay: Urine protein (Coomassie Brilliant Blue assay) in MRL/lpr mouse model of SLE; type: in vivo; settings: week 18
Description: as §1, §2
Urine protein was individually evaluated in each mouse on a biweekly basis using Coomassie Brilliant Blue (CBB) assay with a urine protein test kit (Nanjing Jiancheng Biotechnology Institute, Jiangsu, China).

[7] = 30 mg/kg po qd, p<0.05 vs vehicle
[8] = 100 mg/kg po qd, p<0.0001 vs vehicle

Sequence of Mcl-1 (Q07820 whole entry): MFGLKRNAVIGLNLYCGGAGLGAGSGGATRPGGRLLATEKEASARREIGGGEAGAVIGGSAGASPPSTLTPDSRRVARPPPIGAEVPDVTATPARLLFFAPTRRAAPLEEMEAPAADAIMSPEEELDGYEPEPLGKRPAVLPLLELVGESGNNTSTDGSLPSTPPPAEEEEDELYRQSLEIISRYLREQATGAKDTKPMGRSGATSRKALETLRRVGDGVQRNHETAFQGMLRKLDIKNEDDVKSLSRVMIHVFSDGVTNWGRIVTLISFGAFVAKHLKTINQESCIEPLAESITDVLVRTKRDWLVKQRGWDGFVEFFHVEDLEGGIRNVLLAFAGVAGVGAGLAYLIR

Row | Compound | Kd (Mcl-1) | individual and total lupus nephritis pathological scores, significance (MRL/lpr mice [1]; 100 mg/kg po qd) | pathological score (glomerulonephritis, interstitial nephritis, vasculitis) (MRL/lpr mice [1]; 30 and 100 mg/kg po qd) | lymphadenopathy score (0 to 6) (MRL/lpr mice [2]; 30 mg/kg po qd) | lymphadenopathy score (0 to 6) (MRL/lpr mice [2]; 100 mg/kg po qd) | number of lymphocytes in PBMC (total, T, CD4+ T, CD8+ T, double-negative T, B, activated B, plasmablasts, plasma cells, CD138+ cells) (MRL/lpr mice [3]; week 18, PBMC (FIG. 6)) | number of pro-inflammatory CD4+ T cells and double-negative T cells in the kidney (MRL/lpr mice [3]; week 18, kidney (FIG. 8)) | number of lymphocytes in spleen (total, T, CD4+ T, CD8+ T, double-negative T, B, activated B, plasmablasts, plasma cells, CD138+ cells) (MRL/lpr mice [3]; week 18, spleen (FIG. 7)) | serum anti-dsDNA autoantibody level, % of the vehicle group (MRL/lpr mice [4]; [7]) | serum anti-dsDNA autoantibody level, % of the vehicle group (MRL/lpr mice [4]; [8]) | skin lesion score (MRL/lpr mice [5]; 30 mg/kg po qd) | skin lesion score (MRL/lpr mice [5]; 100 mg/kg po qd) | urine protein level (MRL/lpr mice [6]; [7]) | urine protein level (MRL/lpr mice [6]; [8])
1 | Flu-BID: Fluorescein labeled BID (79-99) peptide, fluorescent probe in FP assay for Mcl-1 | 6.9 ± 0.9 nM |  |  |  |  |  |  |  |  |  |  |  |  | 
2 | O=C(NS(=O)(=O)c1ccc(NC[C@H]2COCCO2)c([N+](=O)[O-])c1)c1ccc(N2CCN(CC3=C(c4ccc(Cl)cc4)CC4(CCC4)CC3)CC2)cc1Oc1cnc2[nH]ccc2c1 [Compound 1, (S)-N-((4-(((1,4-dioxan-2-yl)methyl)amino)-3-nitrophenyl)sulfonyl)-2-((1H-pyrrolo[2,3-b]pyridin-5-yl)oxy)-4-(4-((6-(4-chlorophenyl)spiro[3.5]non-6-en-7-yl)methyl)piperazin-1-yl)benzamide] |  | Statistical significance was achieved | dose-dependently reduced | 2.7±0.4 | 1.6±0.4 | significantly reduced | significantly reduced | significantly reduced | 76.8% | 56.4% | significantly reduced | significantly reduced | 536.1 ± 146.8 mg/L | 266.8 ± 37.7 mg/L
